The record followed here is ChEMBL document CHEMBL1130302, “1-Arylsulfonyl-3-(-hydroxybenzyl)-1H-pyrroles, a novel class of anti-HIV-1 reverse transcriptase inhibitors” (Bioorg Med Chem Lett, 1997).

Where only a bound is given, the exact number is not on record here.

For experiment [1], the system named is MT4. Nature of the experiment: Concentration required to reduce the viability of mock-infected MT-4 cells by 50%. In kind it is functional. To be noted: Homo sapiens.
In experiment [2] the test system is Human immunodeficiency virus 1. As to the kind of experiment: Concentration required to achieve 50% protection of MT-4 cells against the cytopathic effect of HIV-1. It is filed as functional, organism-based. To be noted: Human immunodeficiency virus 1, MT4.
A short description of experiment [3]: Selectivity index reported as ratio of CC50 to EC50. It is filed as functional.
Experiment [4] deals with Human immunodeficiency virus type 1 reverse transcriptase (Human immunodeficiency virus 1, UniProt Q72547). Nature of the experiment: Inhibition of HIV-1 recombinant reverse transcriptase.

By CC50 is commonly meant the concentration at which the toxic effect on the cells reaches its halfway point. A higher CC50 goes with better tolerance by the cells. In general, EC50 refers to the midpoint of the concentration-response curve. High values mean a less potent agent, low ones a more potent agent. For the molecule `O=C(c1ccn(S(=O)(=O)c2ccccc2)c1)c1ccc(Cl)cc1Cl`, the midpoint of cytotoxicity in experiment [1], the CC50, lay at 30 µM. In addition, the EC50 in experiment [2] is > 30 µM.

Consider `CC(C)OC(=O)c1cc(C(O)c2ccc(Cl)cc2Cl)cn1S(=O)(=O)c1ccc(Cl)cc1` (stereo not given), for which, in experiment [1], it took 28 µM to reach half-maximal cytotoxicity (CC50). In experiment [2], the EC50 was > 28 µM.

One may read the IC50 as the concentration needed to halve the response being measured. Take `O=S(=O)(c1ccccc1)n1ccc(C(O)c2ccc(Cl)cc2Cl)c1` (stereo not given): the Ratio in experiment [3] is 11. Further, in experiment [4], the IC50 was > 30 µM. The molecule also had a CC50 in experiment [1] of 57 µM. Further, in experiment [2], the midpoint of the response, the EC50, lay at 5 µM.

With `CCOC(=O)c1cc(C(O)c2ccc(Cl)cc2Cl)cn1S(=O)(=O)c1cc(Cl)ccc1N` (stereo not given), the Ratio in experiment [3] is 1.8. This molecule returned a CC50 in experiment [1] of 29 µM. Moreover, the EC50 in experiment [2] came to 16 µM.

`O=S(=O)(c1ccccc1)n1ccc(C(c2ccc(Cl)cc2Cl)n2ccnc2)c1` (stereo not given) displayed a CC50 in experiment [1] of 14 µM. The concentration for a half-maximal effect (EC50) in experiment [2] is > 14 µM.

As to `O=[N+]([O-])c1ccc(S(=O)(=O)n2ccc(C(O)c3ccc(Cl)cc3Cl)c2)cc1` (stereo not given), the Ratio in experiment [3] amounted to 2.2. Moreover, the CC50 in experiment [1] amounted to 50 µM. Moreover, a half-maximal response in experiment [2] (EC50) required 22 µM.

In experiment [1], `CC(O)c1ccn(S(=O)(=O)c2cc(Cl)ccc2N)c1` (stereo not given) displayed a CC50 of 95 µM. In experiment [2], the half-maximal effective concentration (EC50) was > 95 µM.

Consider `Cc1ccc(S(=O)(=O)n2ccc(C(O)c3ccc(Cl)cc3Cl)c2)cc1` (stereo not given), for which, in experiment [3], the Ratio turned out to be 203. Moreover, the half-maximal inhibitory concentration (IC50) in experiment [4] came out at 18 µM. The molecule further displayed a CC50 in experiment [1] of 61 µM. The molecule further showed an EC50 in experiment [2] of 0.3 µM.

As for `O=S(=O)(c1ccccc1)n1ccc(C(O)c2ccccc2)c1` (stereo not given), the Ratio in experiment [3] is 15. Also, in experiment [1], half-maximal cytotoxicity (CC50) was put at 124 µM. This molecule also displayed an EC50 in experiment [2] of 8 µM.

Molecule `Cc1ccc(C(=O)c2ccn(S(=O)(=O)c3ccccc3)c2)cc1` gave a CC50 in experiment [1] of 30 µM. Besides, the EC50 in experiment [2] was > 30 µM.

For the molecule `O=S(=O)(c1ccccc1)n1ccc(C(c2ccccc2)n2ccnc2)c1` (stereo not given), the CC50 in experiment [1] was determined as 25 µM. In experiment [2], the half-maximal effective concentration (EC50) was > 25 µM.

Consider `CC(=O)OC(c1ccn(S(=O)(=O)c2ccc(C)cc2)c1)c1ccc(Cl)cc1Cl` (stereo not given), for which, in experiment [3], the Ratio was found to be 10. For the same molecule, the midpoint of cytotoxicity in experiment [1], the CC50, lay at 100 µM. The same molecule yielded an EC50 in experiment [2] of 9.8 µM.

On to `CCc1ccc(S(=O)(=O)n2ccc(C(O)c3ccc(Cl)cc3Cl)c2)cc1` (stereo not given), for which, in experiment [3], the Ratio is 47. The IC50 in experiment [4] was 22 µM. Besides, the CC50 in experiment [1] came to 71 µM. The molecule further gave an EC50 in experiment [2] of 1.5 µM.

In turn, `O=S(=O)(c1ccccc1)n1ccc(C(c2ccc(Cl)cc2)n2ccnc2)c1` (stereo not given) gave a CC50 in experiment [1] of 22 µM. In addition, in experiment [2], the EC50 is > 22 µM.

Turning to `O=S(=O)(c1ccccc1)n1ccc(C(O)c2ccc(Cl)cc2)c1` (stereo not given), in experiment [3], the Ratio came to 7. Besides, the midpoint of cytotoxicity in experiment [1], the CC50, lay at 66 µM. This molecule gave an EC50 in experiment [2] of 9 µM.

In experiment [1], `O=C(c1ccccc1)c1ccn(S(=O)(=O)c2ccccc2)c1` came in with a half-maximal cytotoxic concentration (CC50) of 32 µM. In experiment [2], the EC50 is > 32 µM.

With `O=S(=O)(c1ccccc1)n1ccc(C(O)c2ccccc2F)c1` (stereo not given), the Ratio in experiment [3] was > 22. For the same molecule, the CC50 in experiment [1] is > 200 µM. Also, in experiment [2], the EC50 came to 9.1 µM.

The molecule `CCOC(=O)c1cc(C(O)c2ccc(Cl)cc2Cl)cn1S(=O)(=O)c1cc(Cl)ccc1[N+](=O)[O-]` (stereo not given) gave a CC50 in experiment [1] of 14 µM. Further, the EC50 in experiment [2] is > 14 µM.

The molecule `COC(c1ccn(S(=O)(=O)c2ccc(C)cc2)c1)c1ccc(Cl)cc1Cl` (stereo not given) had a CC50 in experiment [1] of 82 µM. Also, the EC50 in experiment [2] is > 82 µM.

On to `Cc1cn([C@H]2C[C@H](N=[N+]=[N-])[C@@H](CO)O2)c(=O)[nH]c1=O` [ZIDOVUDINE], for which the CC50 in experiment [1] was > 20 µM. The molecule also registered an EC50 in experiment [2] of 0.01 µM.

Regarding `Nc1ccc(Cl)cc1S(=O)(=O)n1ccc(C(O)c2ccccc2)c1` (stereo not given), the Ratio in experiment [3] was 34. The IC50 in experiment [4] was > 30 µM. Also, it took 109 µM to reach half-maximal cytotoxicity in experiment [1] (CC50). Further, a half-maximal response in experiment [2] (EC50) required 3.2 µM.

On to `O=C(c1ccc(Cl)cc1)c1ccn(S(=O)(=O)c2ccccc2)c1`, for which the CC50 in experiment [1] came to 26 µM. Besides, the EC50 in experiment [2] was > 26 µM.

`CCOC(=O)c1cc(C(O)c2ccc(Cl)cc2Cl)cn1S(=O)(=O)c1ccc(C)cc1` (stereo not given): the Ratio in experiment [3] amounted to 2.6. The molecule further had a CC50 in experiment [1] of 36 µM. Further, the half-maximal effective concentration (EC50) in experiment [2] worked out at 14 µM.

As for `Cc1ccc(C(c2ccn(S(=O)(=O)c3ccccc3)c2)n2ccnc2)cc1` (stereo not given), the cytotoxic concentration (CC50) in experiment [1] came out at 26 µM. The EC50 in experiment [2] is > 26 µM.

Regarding `CC(C)(C)c1ccc(S(=O)(=O)n2ccc(C(O)c3ccc(Cl)cc3Cl)c2)cc1` (stereo not given), the SI in experiment [3] is 24. Besides, the IC50 in experiment [4] was 6.4 µM. The CC50 in experiment [1] was 62 µM. The concentration for a half-maximal effect (EC50) in experiment [2] worked out at 2.5 µM.

As to `CCOP(=O)(OCC)OP(=O)(OCC)OCC` [ETHYL PYROPHOSPHATE], the Ratio in experiment [3] was determined as 106. Moreover, the CC50 in experiment [1] amounted to 740 µM. The same molecule gave an EC50 in experiment [2] of 7 µM.

As to `CC(C)c1ccc(S(=O)(=O)n2ccc(C(O)c3ccc(Cl)cc3Cl)c2)cc1` (stereo not given), in experiment [3], the Ratio was 28. In addition, the IC50 in experiment [4] was 2.5 µM. For the same molecule, the CC50 in experiment [1] amounted to 51 µM. The EC50 in experiment [2] was found to be 1.8 µM.

On to `Cc1ccccc1S(=O)(=O)n1ccc(C(O)c2ccc(Cl)cc2Cl)c1` (stereo not given), for which, in experiment [3], the Ratio is > 117. Further, the half-maximal inhibitory concentration (IC50) in experiment [4] turned out to be 27 µM. For the same molecule, the CC50 in experiment [1] is > 200 µM. It took 1.7 µM to reach a half-maximal effect in experiment [2] (EC50).

As for `Cc1ccc(C(O)c2ccn(S(=O)(=O)c3ccc(C)cc3)c2)cc1` (stereo not given), in experiment [3], the Ratio came out at 13. The IC50 in experiment [4] came out at 4.7 µM. The molecule also showed a CC50 in experiment [1] of 96 µM. In experiment [2], the EC50 came out at 7.3 µM.

As to `O=S(=O)(c1ccccc1)n1ccc(C(O)c2c(F)cccc2F)c1` (stereo not given), the Ratio in experiment [3] was 2. Besides, the CC50 in experiment [1] came out at 100 µM. This molecule also registered an EC50 in experiment [2] of 48 µM.

For the molecule `Cc1ccnc2c1NC(=O)c1cccnc1N2C1CC1` [NEVIRAPINE], the CC50 in experiment [1] was > 200 µM.

Turning to `Cc1ccc(S(=O)(=O)n2cc(C(O)c3ccc(Cl)cc3Cl)cc2C(=O)OC(C)C)cc1` (stereo not given), the Ratio in experiment [3] is 1.4. It took 32 µM to reach half-maximal cytotoxicity in experiment [1] (CC50). The same molecule yielded an EC50 in experiment [2] of 22 µM.

For the molecule `Cc1ccc(S(=O)(=O)n2ccc(C(O)c3ccc(Cl)cc3Cl)c2)c(C)c1` (stereo not given), in experiment [3], the Ratio is 200. Moreover, the IC50 in experiment [4] was < 1.1 µM. For the same molecule, the CC50 in experiment [1] was found to be 60 µM. In experiment [2], this molecule showed a 50% effective concentration (EC50) of 0.3 µM.

In the case of `Nc1ccc(S(=O)(=O)n2ccc(C(O)c3ccc(Cl)cc3Cl)c2)cc1` (stereo not given), the Ratio in experiment [3] was determined as 6.7. This molecule also returned a CC50 in experiment [1] of 74 µM. Besides, in experiment [2], a half-maximal response (EC50) required 11 µM.

As for `O=S(=O)(c1ccccc1)n1ccc(C(O)c2ccccc2Cl)c1` (stereo not given), the Ratio in experiment [3] worked out at 27.5. Also, the IC50 in experiment [4] came out at 29.5 µM. This molecule also gave a CC50 in experiment [1] of 113 µM. Further, the EC50 in experiment [2] was 4.1 µM.

`Cc1ccc(C(O)c2ccn(S(=O)(=O)c3ccccc3)c2)cc1` (stereo not given): the Ratio in experiment [3] was 8. The CC50 in experiment [1] amounted to 122 µM. In experiment [2], the response was half-maximal at 15 µM (EC50).

As for `O=S(=O)(c1ccc(Cl)cc1)n1ccc(C(O)c2ccc(Cl)cc2Cl)c1` (stereo not given), the Ratio in experiment [3] worked out at 21.8. In addition, the IC50 in experiment [4] worked out at 17 µM. Also, the CC50 in experiment [1] worked out at 96 µM. This molecule gave an EC50 in experiment [2] of 4.4 µM.

As for `COc1ccc(C(O)c2ccn(S(=O)(=O)c3ccc(C)cc3)c2)cc1` (stereo not given), the Ratio in experiment [3] was > 12. Further, the CC50 in experiment [1] was > 200 µM. The molecule further showed a concentration giving a half-maximal response (EC50) in experiment [2] of 15.7 µM.
